Source: US8975249B2, “Heterocyclic compounds and uses thereof” (Celgene Avilomics Research, Inc., priority 2010, dated 2015)
Where two headings read alike, the source gives them in different places.

Assays:
[1] = test system: H1975 cells (EGFR L858R/T790M); assay: Cell proliferation (CellTiter Glo), H1975 cells
Protocol: (§7) Cells were plated in Growth Media supplemented with 5% FBS and 1% P/S at a density of 3,000 cells per well in 96 well tissue culture plates (Corning). […] Growth inhibition (GI50) values were determined by Graph Pad Prism.

WT EGFR (A431 cells) = WT EGFR (A431 cells) (Homo sapiens (Human), UniProt P00533); assay: Phospho-EGFR signaling immunoblot in A431 cells (WT EGFR); assay type: cell-based; conditions: 1 hr treatment, EGF stimulated, phospho-EGFR (Y1068)
Protocol: (§1) A431 human epidermoid carcinoma, H1975 human NSCLC and HCC827 human NSCLC adenocarcinoma cells were obtained from the American Type Culture Center (Manassas, Va.). A431 cells were grown in DMEM (Invitrogen, Carlsbad, Calif.) supplemented with 10% FBS (HyClone, South Logan, Utah) and 1% Penicillin-Streptomycin (P/S, Lonza, Walkersville, Md.).
(§2) All primary antibodies were obtained from Cell Signaling (Danvers, Mass.) and used at 1:1000. Secondary antibodies were used at 1:10,000. Goat anti-mouse IgG IRDye 800CW antibody was obtained from LiCor Biosciences (Lincoln, Nebr.) and goat anti-rabbit IgG Alexa Fluor 680 was obtained from Invitrogen.
(§3) Cells were grown in 12-well plates (Corning, Coring, N.Y.) to 90% confluence and then incubated in low-serum (0.1% FBS) media for 16-18 hr. […] A431 cells were then stimulated with 50 ng/ml EGF (Peprotech, Rocky Hill, N.J.) for 15 min. After treatment, cell monolayers were washed with cold PBS (Invitrogen) and immediately lysed by scrapping into 60 uL cold Cell Extraction Buffer (Invitrogen) supplemented with Complete Protease inhibitors (Roche, Indianapolis, Ind.) and PhosphoSTOP (Roche) phosphatase inhibitors.
(§4) Phospho-protein signals were quantitated using Odyssey Infrared Imaging (Li-Cor Biosciences).
(§5) To assess phosphor-EGFR signaling, blots were probed with rabbit anti-Phospho-EGFR (Y1068) and mouse total anti-EGFR antibodies. Phospho-EGFR signal was normalized to total EGFR expression for each sample. […] Normalized data was fitted using a sigmoidal curve analysis program (Graph Pad Prism version 5) with variable Hill slope to determine the EC50 values.
(§6) The compound numbers recited in Table 4 correspond to the compound numbers in Table 1.

[2] = test system: HCC827 cells (EGFR delE746-A750); assay: Cell proliferation (CellTiter Glo), HCC827 cells
Protocol: as §7

[3] = molecular target: EGFR delE746-A750 deletion mutation (HCC827 cells) (Homo sapiens (Human), UniProt P00533, DEL746-750); assay: Phospho-EGFR signaling immunoblot in HCC827 cells; assay type: cell-based; conditions: for EC50: HCC827 cells, 1 hr treatment, phospho-EGFR (Y1068); for Ratio WT/mutant (HCC827): signaling EC50 WT EGFR / HCC827
Protocol: as §1, §2, §3, §4, §5, §6

[4] = molecular target: EGFR double mutation L858R/T790M (H1975 cells) (Homo sapiens (Human), UniProt P00533, L858R/T790M); assay: Phospho-EGFR signaling immunoblot in H1975 cells; assay type: cell-based; conditions: for EC50: H1975 cells, 1 hr treatment, phospho-EGFR (Y1068); for Ratio WT/mutant (H1975): signaling EC50 WT EGFR / H1975
Protocol: as §1, §2, §3, §4, §5, §6

EGFR (WT) = EGFR (WT) (Homo sapiens (Human), UniProt P00533); assay: Omnia biochemical assay, EGFR-WT active enzyme; conditions: [EGFR-WT]=5 nM, [ATP]=15 uM, 30 min pre-incubation
Protocol: Kinase reactions were started with the addition of 45 μL of the ATP/Tyr-Sox peptide substrate mix and monitored every 71 seconds for 60 minutes at λex360/λem485 in a Synergy^4 plate reader from BioTek (Winooski, Vt.).
The compound numbers correspond to the compound numbers in Table 1.

A431 cells (WT EGFR) = assay: Cell proliferation (CellTiter Glo), A431 cells
Protocol: as §7

[5] = molecular target: EGFR Deletion/T790M Mutation (H1975 cells) (Homo sapiens (Human), UniProt P00533, L858R/T790M); assay: Washout experiment in H1975 cells (pEGFR after compound removal); assay type: cell-based; conditions: 500 nM for 1 hr, at 24 h after compound removal
Protocol: Washout Experiment in H1975 Cells Containing EGFR Deletion/T790M Mutation
Cells were plated in Growth Media supplemented with 10% FBS and 1% P/S at a density of 2.0×10^5 cells per well in 12 well tissue culture plates. Cells were allowed to settle down for 4 hrs and then maintained in low-serum (0.1% FBS) media overnight.
The following morning the media was removed and the cells were treated with 500 nM test compound in low-serum media for 1 hr. The cells were washed free of compound 2× with PBS (Invitrogen). One set of cells were immediately lysed as indicated above as the 0 hr time point. The remaining cells were incubated with complete RPMI-1640 growth media (10% FBS) for 1, 3, 6 and 24 hr. For the first 1 hr, cells were washed 2× with PBS every 30 min. DMSO (0.5%) controls were collected at the 0, 3, 6 and 24 hr time points.

H1975 tumor = H1975 tumor in vivo study; conditions: female nu/nu mice, H1975 subcutaneous, intraperitoneal 25 mg/kg daily for 21 days, determined at 15 days
Protocol: H1975 Tumor In Vivo Study
Female nu/nu mice were implanted with 1×10^7 H1975 tumor cells in 50% Matrigel subcutaneously (0.2 ml injection volume) in the flank. Tumor measurements were recorded three times per week. Tumors were pair matched when they reached an average size of 100-150 mg. Group size was 10 mice. Test compound was administered intraperitoneal, 25 mg/kg daily for 21 days. % Tumor inhibition values were determined at 15 days, the time at which the control group reached a maximum tumor volume. Tumor volume was followed until tumors reached 1500 mm^3 or 60 days.

[6] = proliferation GI50 WT EGFR / H1975
[7] = proliferation GI50 WT EGFR / HCC827

| Compound | Ratio WT/mutant (H1975) [1] | EC50 (WT EGFR (A431 cells)) [nM] | Ratio WT/mutant (HCC827) [2] | EC50 [3] [nM] | Ratio WT/mutant (HCC827) [3] | EC50 [4] [nM] | Ratio WT/mutant (H1975) [4] | IC50 (EGFR (WT)) [nM] | Ratio WT/mutant (H1975) [1, 6] | Ratio WT/mutant (HCC827) [2, 7] | GI50 ([1]; read-out: H1975 GI50, H1975 cells, 72 hr) [nM] | GI50 ([2]; read-out: HCC827 GI50, HCC827 cells, 72 hr) [nM] | GI50 (A431 cells (WT EGFR); read-out: WT EGFR GI50, A431 cells, 72 hr) [nM] | activity restored by new protein synthesis [5] | % Tumor inhibition (H1975 tumor) [%] | GI50 ([1]; Homo sapiens, NCI-H1975, 72 h, read-out: H1975 GI50 (nM)) [nM] | GI50 ([2]; Homo sapiens, HCC827, 72 h, read-out: HCC827 GI50 (nM)) [nM] | GI50 (A431 cells (WT EGFR); Homo sapiens, A-431, 72 h, read-out: WT EGFR GI50 (nM)) [nM] |
| --- | --- | --- | --- | --- | --- | --- | --- | --- | --- | --- | --- | --- | --- | --- | --- | --- | --- | --- |
| C=CC(=O)Nc1cccc(Oc2nc(Nc3ccc(N4CCN(C(=O)OC(C)(C)C)CC4)cc3OC)ncc2Cl)c1 [Compound I-46, tert-butyl 4-(4-(4-(3-acrylamidophenoxy)-5-chloropyrimidin-2-ylamino)-3-methoxyphenyl)piperazine-1-carboxylate] | >1 | > 1000 | >10 | < 10 | >50 | 100 to 500 | >10 | 100 to 300 | – | – | – | – | – | – | – | – | – | – |
| C=CC(=O)Nc1cccc(Nc2nc(Nc3ccc(N4CCOCC4)cc3OC(F)F)ncc2C(F)(F)F)c1 [Compound I-14, N-(3-(2-(2-(difluoromethoxy)-4-morpholinophenylamino)-5-(trifluoromethyl)pyrimidin-4-ylamino)phenyl)acrylamide] | – | 500 to 1000 | – | 10 to 100 | >15 | 10 to 100 | >15 | 10 to 30 | >5 | >10 | – | – | – | – | – | – | – | – |
| N-(3-(5-chloro-2-(2-methoxy-4-morpholinophenylamino)pyrimidin-4-ylamino)phenyl)acrylamide [Compound I-15] | – | – | – | – | – | – | – | 30 to 100 | >1 | >10 | 500 to 1000 | 100 to 500 | > 1000 | – | – | – | – | – |
| C=CC(=O)Nc1cccc(Nc2nc(Nc3ccc(N4CCOCC4)cc3OC)ncc2C(F)(F)F)c1 [Compound I-2, N-(3-(2-(2-methoxy-4-morpholinophenylamino)-5-(trifluoromethyl)pyrimidin-4-ylamino)phenyl)acrylamide] | – | > 1000 | – | – | – | 10 to 100 | >50 | 10 to 30 | >20 | >40 | – | – | – | 40-60% | >66 | – | – | – |
| C=CC(=O)Nc1cccc(Oc2nc(Nc3ccc(N4CCOCC4)cc3OC)ncc2Cl)c1 [Compound I-5, N-(3-(5-chloro-2-(2-methoxy-4-morpholinophenylamino)pyrimidin-4-yloxy)phenyl)acrylamide] | – | > 1000 | – | – | – | 10 to 100 | >30 | 10 to 30 | >5 | >20 | – | – | – | – | >33 | – | – | – |
| C=CC(=O)Nc1cccc(Oc2nc(Nc3ccc(N4CCN(C(C)=O)CC4)cc3OC)ncc2C(F)(F)F)c1 [Compound I-10, N-(3-(2-(4-(4-acetylpiperazin-1-yl)-2-methoxyphenylamino)-5-(trifluoromethyl)pyrimidin-4-yloxy)phenyl)acrylamide] | >1 | – | >20 | – | – | – | – | 1 to 10 | – | – | – | – | – | – | – | 500 to 1000 | 100 to 500 | > 1000 |
| C=CC(=O)Nc1cccc(Oc2nc(Nc3ccc(N4CCOCC4)cc3OC)ncc2C(F)(F)F)c1 [Compound I-1, N-(3-(2-(2-methoxy-4-morpholinophenylamino)-5-(trifluoromethyl)pyrimidin-4-yloxy)phenyl)acrylamide] | – | > 1000 | – | – | – | 10 to 100 | >50 | 30 to 100 | >15 | >15 | – | – | – | – | >66 | – | – | – |
| C=CC(=O)Nc1cccc(Nc2nc(Nc3ccc(N4CCN(C(C)=O)CC4)cc3OC)ncc2C(F)(F)F)c1 [Compound I-4, N-(3-(2-(4-(4-acetylpiperazin-1-yl)-2-methoxyphenylamino)-5-(trifluoromethyl)pyrimidin-4-ylamino)phenyl)acrylamide] | – | – | – | – | – | – | – | – | – | – | – | – | – | 40-60% | >66 | – | – | – |
| C=CC(=O)Nc1cccc(Nc2nc(Nc3ccc(N4CCN(S(C)(=O)=O)CC4)cc3OC)ncc2C(F)(F)F)c1 [Compound I-17, N-(3-(2-(2-methoxy-4-(4-(methylsulfonyl)piperazin-1-yl)phenylamino)-5-(trifluoromethyl)pyrimidin-4-ylamino)phenyl)acrylamide] | – | > 1000 | – | 100 to 500 | >5 | 10 to 100 | >30 | 10 to 30 | >10 | >15 | – | – | – | – | – | – | – | – |
